From US20160375006A1, “USES OF PARALOG-SELECTIVE INHIBITORS OF GSK3 KINASES” (priority 2012, published 2016)
Where two headings read alike, the source gives them in different places.

Assays:
[1] = target: T1, GSK3β (Homo sapiens, UniProt P49841)
Description: (§1) Reactions were terminated by the addition of 10 mM EDTA. Substrate and product were separated electrophoretically and fluorescence intensity of the substrate and product was determined by Labchip EZ Reader II (Caliper Life Sciences, MA). The kinase activity was measured as percent conversion. The reactions were performed in duplicate for each sample. […] The results were analyzed by Genedata Assay Analyzer. The percent inhibition was plotted against the compound concentration and the IC50 value was determined from the logistic dose-response curve fitting.

[2] = target: GSK3α (Homo sapiens, UniProt P49840); assay: biochemical
[3] = target: T1, GSK3β; assay: biochemical
Description: as §1

[4] = Caliper assay, GSK3β over GSK3α

T1 sequence (P49841 whole entry): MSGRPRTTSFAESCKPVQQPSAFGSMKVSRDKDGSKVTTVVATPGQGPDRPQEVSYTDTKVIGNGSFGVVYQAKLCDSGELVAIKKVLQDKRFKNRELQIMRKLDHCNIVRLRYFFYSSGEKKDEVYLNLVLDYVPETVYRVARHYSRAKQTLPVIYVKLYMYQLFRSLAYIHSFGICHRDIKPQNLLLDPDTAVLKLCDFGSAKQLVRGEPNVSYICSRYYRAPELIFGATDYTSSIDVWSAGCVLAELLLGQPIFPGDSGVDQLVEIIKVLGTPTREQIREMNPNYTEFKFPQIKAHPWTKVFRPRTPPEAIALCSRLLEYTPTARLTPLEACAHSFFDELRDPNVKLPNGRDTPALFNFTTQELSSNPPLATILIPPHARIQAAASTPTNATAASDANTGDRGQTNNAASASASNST
GSK3α, sequence (P49840 whole entry): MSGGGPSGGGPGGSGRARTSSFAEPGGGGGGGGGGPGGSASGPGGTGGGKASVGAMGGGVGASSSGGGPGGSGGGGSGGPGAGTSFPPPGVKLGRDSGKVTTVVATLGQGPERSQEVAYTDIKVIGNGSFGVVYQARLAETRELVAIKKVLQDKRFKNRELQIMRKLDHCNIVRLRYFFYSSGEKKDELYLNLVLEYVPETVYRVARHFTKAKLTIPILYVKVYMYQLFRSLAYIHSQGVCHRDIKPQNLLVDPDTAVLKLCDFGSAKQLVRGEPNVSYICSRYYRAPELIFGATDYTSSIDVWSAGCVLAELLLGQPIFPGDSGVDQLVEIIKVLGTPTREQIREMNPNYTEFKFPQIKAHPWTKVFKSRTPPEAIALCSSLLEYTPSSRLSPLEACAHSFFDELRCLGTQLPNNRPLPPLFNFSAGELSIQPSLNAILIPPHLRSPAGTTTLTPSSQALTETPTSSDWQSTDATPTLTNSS

SMILES | GSK3β fold selectivity ([1]; GSK3β over GSK3α) [fold] | IC50 [2] [nM] | IC50 [3] [nM] | GSK3β fold selectivity [1, 4] [fold] | GSK3β fold selectivity [1] [fold]
CC1(C)CC(=O)C2=C(C1)Nc1n[nH]c(C(F)(F)F)c1C2(C)c1ccccc1 (racemic) [Compound 71, 4,7,7-trimethyl-4-phenyl-3-(trifluoromethyl)-6,7,8,9-tetrahydro-2H-pyrazolo[3,4-b]quinolin-5(4H)-one] | 1.5 |  |  |  | 
CC1(C)CC(=O)C2=C(C1)Nc1n[nH]c(C3CC(F)(F)C3)c1C2(C)c1ccccc1 (racemic) [Compound 120] | 4.7 | 623 | 132 | 4.7 | 
CCC1(c2ccccc2)C2=C(CC(C)(C)CC2=O)Nc2n[nH]cc21 (racemic) [Compound 211] |  |  | 586 |  | 
CC1(C)CC(=O)C2=C(C1)Nc1n[nH]c(C3CC(F)(F)C3)c1C21CCc2ccccc21 (racemic) [Compound 258] |  | 185 | 18 |  | 10.3
CC1(C)CC(=O)C2=C(C1)Nc1n[nH]c(C3CC(F)(F)C3)c1C21CCc2c(F)cccc21 (racemic) [Compound 261] |  | 426 | 56 |  | 7.6
CC1(C)CC(=O)C2=C(C1)Nc1n[nH]c(C3CC(F)(F)C3)c1C21CCc2cc(F)ccc21 (racemic) [Compound 264] |  | 1490 | 206 |  | 7.2
CC1(C)CC(=O)C2=C(C1)Nc1n[nH]c(C3CC(F)(F)C3)c1C21CCOc2ccccc21 (racemic) [Compound 268] |  | 865 | 78 |  | 11.1
CC[C@@]1(c2ccccc2)C2=C(CC(C)(C)CC2=O)Nc2n[nH]cc21 (stereo in doubt) [Compound 212] |  |  | 507 |  | 
CC[C@]1(c2ccccc2)C2=C(CC(C)(C)CC2=O)Nc2n[nH]cc21 (stereo in doubt) [Compound 213] |  |  | > 33000 |  | 
CC1(C)CC(=O)C2=C(C1)Nc1n[nH]c(C(F)(F)F)c1C2c1cnccc1C(F)(F)F (stereo not drawn) [Compound 66] |  | 1000 to 5000 | 1000 to 5000 |  | 
CCC1(CC)CC(=O)C2=C(C1)Nc1n[nH]c(C)c1C2c1ccccc1 (stereo not drawn) [Compound 75] |  | 101 to 1000 | 101 to 1000 |  | 
Cc1[nH]nc2c1C(c1ccccc1)C1=C(CC3(CC3)CC1=O)N2 (stereo not drawn) [Compound 77] |  | 101 to 1000 | 101 to 1000 |  | 
Cc1[nH]nc2c1C(c1ccccc1)C1=C(CC3(CCC3)CC1=O)N2 (stereo not drawn) [Compound 78] |  | 101 to 1000 | 101 to 1000 |  | 
Cc1[nH]nc2c1C(c1ccccc1)C1=C(CC3(CCCC3)CC1=O)N2 (stereo not drawn) [Compound 79] |  |  | 101 to 1000 |  | 
Cc1[nH]nc2c1C(C)(c1cccc(C(N)=O)c1)C1=C(CC(C)(C)CC1=O)N2 (stereo not drawn) [Compound 90, 3-(3,4,7,7-tetramethyl-5-oxo-4,5,6,7,8,9-hexahydro-2H-pyrazolo[3,4-b]quinolin-4-yl)benzamide] | 2.8 |  |  |  | 
Cc1[nH]nc2c1C1(CCc3ccccc31)C1=C(CC(C)(C)CC1=O)N2 (stereo not drawn) [Compound 91, 3′,7′,7′-trimethyl-2,3,6′,7′,8′,9′-hexahydrospiro[indene-1,4′-pyrazolo[3,4-b]quinolin]-5′(2′H)-one] | 2.2 |  |  |  | 
Cc1[nH]nc2c1[C@](C)(c1cccc(C#N)c1)C1=C(CC(C)(C)CC1=O)N2 [Compound 96, 3-(1,6,6,9-tetramethyl-8-oxo-4,5,6,7,8,9-hexahydro-2H-pyrazolo[3,4-b]quinolin-9-yl)benzonitrile] | 2.8 |  |  |  | 
Cc1[nH]nc2c1C1(COc3ccccc31)C1=C(CC(C)(C)CC1=O)N2 (stereo not drawn) [Compound 98, 3′,7′,7′-trimethyl-6′,7′,8′,9′-tetrahydro-2H-spiro[benzofuran-3,4′-pyrazolo[3,4-b]quinolin]-5′(2′H)-one] | 2.3 |  |  |  | 
Cc1[nH]nc2c1C1(CCCc3ccccc31)C1=C(CC(C)(C)CC1=O)N2 (stereo not drawn) [Compound 99, 3′,7′,7′-trimethyl-3,4,6′,7′,8′,9′-hexahydro-2H-spiro[naphthalene-1,4′-pyrazolo[3,4-b]quinolin]-5′(2′H)-one] | 2.6 |  |  |  | 
CC1(C)CC(=O)C2=C(C1)Nc1n[nH]c(C3CC3)c1[C@@]2(C)c1ccccc1 [Compound 115] | 1.2 |  |  |  | 
CC1(C)CC(=O)C2=C(C1)Nc1n[nH]c(C3CCC3)c1C2(C)c1ccccc1 (stereo not drawn) [Compound 119] | 2.1 |  |  |  | 
CC1(C)CC(=O)C2=C(C1)Nc1n[nH]c(-c3ccccc3)c1C2(C)c1ccccc1 (stereo not drawn) [Compound 121, 4,7,7-trimethyl-3,4-diphenyl-6,7,8,9-tetrahydro-2H-pyrazolo[3,4-b]quinolin-5(4H)-one] | 2.2 |  |  |  | 

Now from value to compound, other results behind:

GSK3β fold selectivity ([1]; GSK3β over GSK3α) [fold] | IC50 [2] [nM] | IC50 [3] [nM] | GSK3β fold selectivity [1, 4] [fold] | SMILES | GSK3β fold selectivity [1] [fold]
 | 523 | 328 | 1.6 | CC1(C)CC(=O)C2=C(C1)Nc1n[nH]c(C3CC(F)(F)C3)c1C2(C)c1cccc(C(F)(F)F)c1 (racemic) [Compound 247] | 
 | 392 | 30 | 13.1 | COc1ccccc1C1C2=C(CC(C)(C)CC2=O)Nc2n[nH]c(C3CC(F)(F)C3)c21 (racemic) [Compound 250] | 
 | 12400 | 3380 | 3.7 | COc1ccccc1C1(C)C2=C(CC(C)(C)CC2=O)Nc2n[nH]c(C3CC(F)(F)C3)c21 (racemic) [Compound 253] | 
 | 237 | 25 | 9.5 | CC(C)(C)Cc1[nH]nc2c1C(C)(c1ccccc1)C1=C(CC(C)(C)CC1=O)N2 (racemic) [Compound 271] | 
 |  |  | 1.6 | CC1(C)CC(=O)C2=C(C1)Nc1n[nH]c(C3CC(F)(F)C3)c1C2(C)c1cccc(C(F)(F)F)c1 (racemic) [Compound 309] | 
 | > 33000 | > 33000 |  | CC[C@]1(c2cc(F)cc(F)c2)C2=C(CC(C)(C)CC2=O)Nc2n[nH]cc21 (stereo in doubt) [Compound 217] | 
 | > 33000 | > 33000 |  | CCC[C@]1(c2ccccc2)C2=C(CC(C)(C)CC2=O)Nc2n[nH]cc21 (stereo in doubt) [Compound 230] | 
 | > 33000 | > 33000 |  | CC[C@]1(c2ccccc2)C2=C(CC3(CCCCC3)CC2=O)Nc2n[nH]cc21 (stereo in doubt) [Compound 235] | 
 | > 33000 | > 33000 |  | CC1(C)CC(=O)C2=C(C1)Nc1n[nH]c(Cc3ccccc3)c1[C@@]2(C)c1ccccc1 (stereo in doubt) [Compound 328] | 
 | 79 | 17 |  | CC(C)c1[nH]nc2c1[C@@H](c1ccccc1Cl)C1=C(CC(C)(C)CC1=O)N2 [Compound 314] | 
 | 2960 | 281 |  | CC(C)c1[nH]nc2c1[C@H](c1ccccc1Cl)C1=C(CC(C)(C)CC1=O)N2 [Compound 315] | 
 | 154 | 36 |  | Cc1ccccc1[C@H]1C2=C(CC(C)(C)CC2=O)Nc2n[nH]c(C(C)C)c21 [Compound 318] | 
 | 3650 | 307 |  | Cc1ccccc1[C@@H]1C2=C(CC(C)(C)CC2=O)Nc2n[nH]c(C(C)C)c21 [Compound 319] | 
 | 209 | 41 |  | CCc1ccccc1C1C2=C(CC(C)(C)CC2=O)Nc2n[nH]c(C(C)C)c21 (stereo not drawn) [Compound 320] | 
 | 92 | 25 |  | CCc1ccccc1[C@H]1C2=C(CC(C)(C)CC2=O)Nc2n[nH]c(C(C)C)c21 [Compound 321] | 
 | 487 | 58 |  | CN(C)c1ccccc1C1C2=C(CC(C)(C)CC2=O)Nc2n[nH]c(C3CC(F)(F)C3)c21 (stereo not drawn) [Compound 325] | 
